How the values were obtained:
[1] = system: normal NK cells expanded with K562-aAPC; assay: percent inhibition of viability; higher = more inhibition; conditions: 72 h, IL-2 2.5 ng/mL
Procedure: (§1)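 Drug sensitivity and resistance testing on K562-aAPC-expanded normal NK cells: 5 concentrations (10-fold steps over a 10,000-fold range), 72 h at 37 °C, viability by CellTiter-Glo normalised to DMSO and benzethonium chloride controls; DSS from the fitted curve.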

DERL-7 (IL-2 2.5 ng/mL) [2] = assay: as above; conditions: 72 h
IMC-1 (IL-2 20 ng/mL) [3] = assay: as above; conditions: 72 h
KAI3 (IL-2 2.5 ng/mL) [4] = assay: as above; conditions: 72 h
KHYG-1 (IL-2 2.5 ng/mL) [5] = assay: as above; conditions: 72 h
NK-92 (IL-2 2.5 ng/mL) [6] = assay: as above; conditions: 72 h
NK-YS (IL-2 2.5 ng/mL) [7] = assay: as above; conditions: 72 h
NKL (IL-2 2.5 ng/mL) [8] = assay: as above; conditions: 72 h
SNK-6 (IL-2 2.5 ng/mL) [9] = assay: as above; conditions: 72 h
YT (IL-2 2.5 ng/mL) [10] = assay: as above; conditions: 72 h
[11] = system: normal primary NK cells, pool 1 (3 donors) (IL-2 2.5 ng/mL); assay: as above; conditions: 72 h
[12] = system: normal primary NK cells, pool 1 (3 donors), resting (IL-2 0 ng/mL); assay: as above; conditions: 72 h
[13] = system: normal primary NK cells, pool 2 (3 donors) (IL-2 2.5 ng/mL); assay: as above; conditions: 72 h
[14] = system: normal primary NK cells, pool 3 (3 donors) (IL-2 2.5 ng/mL); assay: as above; conditions: 72 h
[15] = system: normal NK cells expanded with K562-aAPC; assay: drug sensitivity score (DSS) (DSS units); higher = more sensitive; extreme values may be limits of the assay; conditions: 72 h; IL-2 2.5 ng/mL
Procedure: as §1

DERL-7 (IL-2 2.5 ng/mL) [16] = assay: as above; conditions: 72 h
IMC-1 (IL-2 20 ng/mL) [17] = assay: as above; conditions: 72 h
KAI3 (IL-2 2.5 ng/mL) [18] = assay: as above; conditions: 72 h
KHYG-1 (IL-2 2.5 ng/mL) [19] = assay: as above; conditions: 72 h
NK-92 (IL-2 2.5 ng/mL) [20] = assay: as above; conditions: 72 h
NK-YS (IL-2 2.5 ng/mL) [21] = assay: as above; conditions: 72 h
NKL (IL-2 2.5 ng/mL) [22] = assay: as above; conditions: 72 h
SNK-6 (IL-2 2.5 ng/mL) [23] = assay: as above; conditions: 72 h
YT (IL-2 2.5 ng/mL) [24] = assay: as above; conditions: 72 h
[25] = system: normal primary NK cells, pool 1 (3 donors) (IL-2 2.5 ng/mL); assay: as above; conditions: 72 h
[26] = system: normal primary NK cells, pool 1 (3 donors), resting (IL-2 0 ng/mL); assay: as above; conditions: 72 h
[27] = system: normal primary NK cells, pool 2 (3 donors) (IL-2 2.5 ng/mL); assay: as above; conditions: 72 h
[28] = system: normal primary NK cells, pool 3 (3 donors) (IL-2 2.5 ng/mL); assay: as above; conditions: 72 h

COc1ncc(-c2ccc3nccc(-c4ccnnc4)c3c2)cc1NS(=O)(=O)c1ccc(F)cc1F [Omipalisib] (max concentration tested 1000 nM)
percent inhibition of viability [%]
Conditions	0.1 nM	1 nM	10 nM	100 nM	1000 nM
DERL-7 (IL-2 2.5 ng/mL) [2]	1.39	16.9	45.5	77.3	95.7
IMC-1 (IL-2 20 ng/mL) [3]	-0.58	-1.71	-11.8	-32.5	29.1
KAI3 (IL-2 2.5 ng/mL) [4]	2.3	36.1	15.3	35.5	62.9
KHYG-1 (IL-2 2.5 ng/mL) [5]	1.89	1.24	8.6	40.2	91.6
NK-92 (IL-2 2.5 ng/mL) [6]	3.62	20.4	32.1	48.6	69.9
NK-YS (IL-2 2.5 ng/mL) [7]	-0.6	1.69	13.2	53.7	73.3
NKL (IL-2 2.5 ng/mL) [8]	-9.37	0.19	6.59	54.9	80.4
SNK-6 (IL-2 2.5 ng/mL) [9]	8.44	2.37	-0.31	30.5	61.5
YT (IL-2 2.5 ng/mL) [10]	-0.94	1.51	27.5	54.4	79.8
[1]	3.51	3.67	20.4	44.6	55.5
[11]	-10	-4.5	18.5	20.1	40
[12]	2.21	9.83	13.8	26.6	49.1
[13]	-6.47	2.05	24.7	24.7	47.5
[14]	-11.3	-2.43	7.07	5.39	36.4

Conditions	drug sensitivity score
DERL-7 (IL-2 2.5 ng/mL) [16]	21
IMC-1 (IL-2 20 ng/mL) [17]	0.6
KAI3 (IL-2 2.5 ng/mL) [18]	12.9
KHYG-1 (IL-2 2.5 ng/mL) [19]	9.7
NK-92 (IL-2 2.5 ng/mL) [20]	14.8
NK-YS (IL-2 2.5 ng/mL) [21]	11.7
NKL (IL-2 2.5 ng/mL) [22]	11.4
SNK-6 (IL-2 2.5 ng/mL) [23]	7.24
YT (IL-2 2.5 ng/mL) [24]	13.7
[15]	10.6
[25]	5.18
[26]	6.75
[27]	7.36
[28]	2.64

Cc1[nH]c(/C=C2\C(=O)Nc3ccccc32)c(C)c1CCC(=O)O [Orantinib] (max concentration tested 10000 nM)
percent inhibition of viability [%]
Conditions	1 nM	10 nM	100 nM	1000 nM	10000 nM
DERL-7 (IL-2 2.5 ng/mL) [2]	1.12	-2.21	-6.87	-10.2	-8.27
IMC-1 (IL-2 20 ng/mL) [3]	-7.71	-4.44	-5.94	1.86	11
KAI3 (IL-2 2.5 ng/mL) [4]	0.42	1.13	-2.39	7	29.4
KHYG-1 (IL-2 2.5 ng/mL) [5]	-7.11	-2.97	-4.54	8.46	13.8
NK-92 (IL-2 2.5 ng/mL) [6]	-10.9	-1.51	-13.1	11.1	13
NK-YS (IL-2 2.5 ng/mL) [7]	-6.4	-2.5	-1.18	7.48	23.9
NKL (IL-2 2.5 ng/mL) [8]	-19.2	-18.2	-1.7	6.18	14.6
SNK-6 (IL-2 2.5 ng/mL) [9]	-0.4	10.2	3.89	15.8	-2.27
YT (IL-2 2.5 ng/mL) [10]	-3.34	1.08	0.41	8.54	18.7
[1]	-1.66	-4.19	-1.4	6.04	9.43
[11]	-0.7	9.63	7.39	4.16	9.93
[12]	-0.49	20.7	11.4	12.2	21.7
[13]	-0.89	-3.13	6.7	-0.82	5.48
[14]	-4.8	2.21	11.9	-1.68	9.39

Conditions	drug sensitivity score
DERL-7 (IL-2 2.5 ng/mL) [16]	0
IMC-1 (IL-2 20 ng/mL) [17]	0.04
KAI3 (IL-2 2.5 ng/mL) [18]	2.32
KHYG-1 (IL-2 2.5 ng/mL) [19]	0.65
NK-92 (IL-2 2.5 ng/mL) [20]	0.62
NK-YS (IL-2 2.5 ng/mL) [21]	1.86
NKL (IL-2 2.5 ng/mL) [22]	0.67
SNK-6 (IL-2 2.5 ng/mL) [23]	0
YT (IL-2 2.5 ng/mL) [24]	1.23
[15]	0
[25]	0
[26]	3.33
[27]	0
[28]	0

Source: the supplement of paper PMC5908809
